{"source": "patent US20140356361A1", "about": "“REPEATED ADMINISTRATION OF NON-IMMUNOSUPPRESSIVE ANTIGEN SPECIFIC IMMUNOTHERAPEUTICS” (Selecta Biosciences, Inc., priority 2013, published 2014)", "assay_type_in_all_cases": "in vivo, C57BL/6 mice", "key": {"[1]": {"test_system": "keyhole limpet hemocyanine (KLH)", "assay": "Anti-KLH antibody response, KLH+CpG given after MTX treatment (Example 17)", "conditions": "20 μg KLH + 2 μg CpG s.c. injected after the MTX treatments (from d21); FIG. 2", "method": "(§1) C57BL/6 age-matched (5-6 weeks) female mice were injected 5 times intravenously in the tail vein with weekly injections of 25 μg of an immunogenic, particulate form of chicken Ovalbumin (pOVA). One group of animals received 3 intraperitoneal injections of 200 μg of MTX along with the 3 first antigen injections the same day and the 2 following days. The untreated group received only antigen whereas the treated group received 9 injections total of MTX i.p. (days 1-3, 7-9, 14-16). On the 4th and 5th injection days all animals received 20 μg of keyhole limpet hemocyanine (KLH) subcutaneously in the hind limbs admixed to 2 μg of CpG in addition to the i.v. injection of pOVA.\n(§2) The anti-KLH and anti-OVA antibody responses were monitored in the blood in these animals at different time points."}, "[2]": {"test_system": "keyhole limpet hemocyanin (KLH)", "assay": "Anti-KLH IgG titers, MTX given with KLH i.v. (Example 18)", "conditions": "MTX i.p. days 1-3, 7-9, 14-16; 200 μg KLH i.v. weekly, 5 injections; FIG. 3", "method": "(§3) In order to test whether multiple injections of MTX can lead to the establishment of immunological tolerance, C57BL/6 age-matched (5-6 weeks) female mice were injected intravenously in the tail vein with weekly injections of 200 μg of keyhole limpet hemocyanin (KLH) and subcutaneously in the hind limbs with 25 μg of a particulate form of chicken Ovalbumin (pOVA) admixed to 2 μg of CpG oligodeoxynucleotides (ODN). With the first three antigen injections, a group of animals received 3 intraperitoneal injections of MTX on the same day and the following 2 days. All animals received 5 injections of antigen (d0, 7, 14, 21 and 28) and one group received 9 additional injections of MTX i.p. (days 1-3, 7-9, 14-16).\n(§4) The anti-KLH and anti-OVA responses were monitored in the blood in these animals at different time points."}, "[3]": {"test_system": "chicken Ovalbumin (pOVA)", "assay": "Anti-OVA antibody response, MTX given with pOVA (Example 17)", "conditions": "200 μg MTX i.p. days 1-3, 7-9, 14-16; 5 weekly i.v. injections of 25 μg pOVA; FIG. 2", "method": "as §1, §2"}, "[4]": {"test_system": "chicken Ovalbumin (pOVA)", "assay": "Anti-OVA IgG titers, MTX given with pOVA+CpG s.c. (Example 18)", "conditions": "MTX i.p. days 1-3, 7-9, 14-16; 25 μg pOVA + 2 μg CpG s.c. weekly, 5 injections; FIG. 3", "method": "as §3, §4"}}}
{"compound": "CN(Cc1cnc2nc(N)nc(N)c2n1)c1ccc(C(=O)N[C@@H](CCC(=O)O)C(=O)O)cc1", "note": "[MTX, Methotrexate]", "values": [{"measurement": "anti-KLH response", "setting": "[1]", "value": "robust anti-KLH response could be detected in all groups"}, {"measurement": "anti-KLH IgG antibody titers", "setting": "[2]", "value": "blocked both responses and the animals showed low titers"}, {"measurement": "anti-OVA antibody response", "setting": "[3]", "value": "blocked the antibody response and only minimal titers were detected"}, {"measurement": "anti-OVA IgG antibody titers", "setting": "[4]", "value": "blocked both responses and the animals showed low titers"}]}
